# Test results: patent US9181277B2, “Aminoquinazoline derivatives and their salts and methods of use” (SUNSHINE LAKE PHARMA CO., LTD., priority 2011, dated 2015)
# Molecular target: EGFR Kinase (Homo sapiens, UniProt P00533)
# Assay: EGFR inhibitory activity test (HTRF kinEASE STK S1 kinase assay)
# Format: biochemical
# Conditions: replicate wells, read-out: IC50(nM), Inhibitory Activity of Compounds on EGFR Kinase
# Method: In a pilot study, the compounds disclosed herein were screened for their EGFR inhibitory activity. The Cisbio Research Product HTRF kinEASE STK S1 kinase assay/inhibitor screening Kit, can detect the generation of the phosphorylated substrate. Kinase, biotinylated substrate and ATP were first added into buffer solution, and the phosphorylated biotinylated substrates were formed by enzyme reaction. Then, to the above solution was added europium-labeled anti-phospho-site specific antibodies and XL665-labeled avidin. The Specific combinations of antibody with antigen, and biotin with avidin, bring the europium and XL665 closer together and resonance energy transferred. The signals at 620 nm and 665 nm were detected, and the activity of the kinase was evaluated by the ratio of the two signals value.
# Chain of EGFR Kinase (P00533 25-1210): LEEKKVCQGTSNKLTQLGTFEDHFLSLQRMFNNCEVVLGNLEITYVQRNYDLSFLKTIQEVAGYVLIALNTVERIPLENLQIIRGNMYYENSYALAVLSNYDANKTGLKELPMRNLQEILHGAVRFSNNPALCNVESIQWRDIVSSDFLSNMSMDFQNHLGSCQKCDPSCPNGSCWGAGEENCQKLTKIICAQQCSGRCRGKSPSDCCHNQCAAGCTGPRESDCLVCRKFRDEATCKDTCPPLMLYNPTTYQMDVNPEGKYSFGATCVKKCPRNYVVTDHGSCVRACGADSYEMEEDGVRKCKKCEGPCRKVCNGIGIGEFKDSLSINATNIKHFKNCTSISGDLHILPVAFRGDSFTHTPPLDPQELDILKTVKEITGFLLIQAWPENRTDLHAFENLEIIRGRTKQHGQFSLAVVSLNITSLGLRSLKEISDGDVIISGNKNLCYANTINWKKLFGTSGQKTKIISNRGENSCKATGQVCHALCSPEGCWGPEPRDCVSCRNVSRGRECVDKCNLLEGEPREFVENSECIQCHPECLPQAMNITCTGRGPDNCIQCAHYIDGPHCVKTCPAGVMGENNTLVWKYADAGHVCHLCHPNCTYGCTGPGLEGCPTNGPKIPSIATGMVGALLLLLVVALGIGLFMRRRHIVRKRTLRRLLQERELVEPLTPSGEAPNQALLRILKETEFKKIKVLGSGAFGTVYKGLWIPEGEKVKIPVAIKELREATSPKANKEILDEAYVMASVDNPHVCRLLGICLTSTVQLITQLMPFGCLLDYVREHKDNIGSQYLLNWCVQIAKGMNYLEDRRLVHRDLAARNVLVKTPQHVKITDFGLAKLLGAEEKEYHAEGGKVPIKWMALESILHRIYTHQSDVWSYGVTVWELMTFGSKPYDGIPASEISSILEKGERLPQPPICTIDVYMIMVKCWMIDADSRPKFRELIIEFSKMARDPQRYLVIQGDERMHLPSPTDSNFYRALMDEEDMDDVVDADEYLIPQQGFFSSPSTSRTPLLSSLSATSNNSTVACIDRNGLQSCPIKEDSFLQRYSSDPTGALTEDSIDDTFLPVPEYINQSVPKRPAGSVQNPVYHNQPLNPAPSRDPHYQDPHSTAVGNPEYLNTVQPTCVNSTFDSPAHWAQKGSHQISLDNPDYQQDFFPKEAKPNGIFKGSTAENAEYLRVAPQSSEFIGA
row,IC50,Compound
1,0.001 to 0.1 nM,"CCN1CCCC2CN(CCCOc3cc4c(Nc5ccc(F)c(Cl)c5)ncnc4cc3OC)CC21 (stereo not drawn) [Example 34, N-(3-chloro-4-fluorophenyl)-6-(3-(1-ethylhexahydro-1H-pyrrolo[3,4-b]pyridin-6(2H)-yl)propoxy)-7-methoxyquinazolin-4-amine]"
2,0.001 to 0.1 nM,"COc1cc2ncnc(Nc3ccc(F)c(Cl)c3)c2cc1OCCCN1CCC2CCCCC2C1 (stereo not drawn) [Example 35, N-(3-chloro-4-fluorophenyl)-7-methoxy-6-(3-(octahydroisoquinolin-2(1H)-yl)propoxy)quinazolin-4-amine]"
3,1 to 10 nM,"COc1cc2ncnc(Nc3ccc(F)c(Cl)c3)c2cc1OCCCN1CCC2OCCOC2C1 (stereo not drawn) [Example 36, N-(3-chloro-4-fluorophenyl)-6-(3-(hexahydro-[1,4]dioxino[2,3-c]pyridin-6(7H)-yl)propoxy)-7-methoxyquinazolin-4-amine]"
4,1 to 10 nM,"COc1cc2ncnc(Nc3ccc(F)c(Cl)c3)c2cc1OCCCN1CCC2COCC2C1 (stereo not drawn) [Example 37, N-(3-chloro-4-fluorophenyl)-6-(3-(hexahydrofuro[3,4-c]pyridin-5(3H)-yl)propoxy)-7-methoxy quinazolin-4-amine]"
5,0.101 to 1 nM,"COc1cc2ncnc(Nc3ccc(F)c(Cl)c3)c2cc1OCCCN1CCc2c(c(C)nn2C)C1 [Example 38, N-(3-chloro-4-fluorophenyl)-6-(3-(1,3-dimethyl-6,7-dihydro-1H-pyrazolo[4,3-c]pyridin-5(4H)-yl)propoxy)-7-methoxyquinazolin-4-amine]"
6,1 to 10 nM,"COc1cc2ncnc(Nc3ccc(F)c(Cl)c3)c2cc1OCCCN1CCc2nn(C)c(C)c2C1 [Example 39, N-(3-chloro-4-fluorophenyl)-6-(3-(2,3-dimethyl-6,7-dihydro-2H-pyrazolo[4,3-c]pyridine-5(4H)-yl)propoxy)-7-methoxyquinazolin-4-amine]"
7,0.001 to 0.1 nM,"COc1cc2ncnc(Nc3ccc(F)c(Cl)c3)c2cc1OCCCN1C[C@@H]2OCCO[C@H]2C1 [Example 40, N-(3-chloro-4-fluorophenyl)-7-methoxy-6-(3-((4aS,7aS)-tetrahydro-2H-[1,4]dioxino[2,3-c]pyrrol-6(3H)-yl)propoxy)quinazolin-4-amine]"
8,0.001 to 0.1 nM,"COc1cc2ncnc(Nc3ccc(F)cc3)c2cc1OCCCN1CC2CNCC2C1 (stereo not drawn) [Example 41, N-(4-fluorophenyl)-6-(3-(hexahydropyrrolo[3,4-c]pyrrol-2(1H)-yl)propoxy)-7-methoxyquinazolin-4-amine]"
9,1 to 10 nM,"COc1cc2ncnc(Nc3ccc(F)cc3)c2cc1OCCCN1CCn2cnnc2C1 [Example 42, 6-(3-(5,6-dihydro-[1,2,4]triazolo[4,3-a]pyrazin-7(8H)-yl)propoxy)-N-(4-fluorophenyl)-7-methoxyquinazolin-4-amine]"
10,0.101 to 1 nM,"COc1cc2ncnc(Nc3ccc(F)cc3)c2cc1OCCCN1CCC2COCC2C1 (stereo not drawn) [Example 43, N-(4-fluorophenyl)-6-(3-(hexahydrofuro[3,4-c]pyridin-5(3H)-yl)propoxy)-7-methoxyquinazolin-4-amine]"
11,0.101 to 1 nM,"C#Cc1cc(Nc2ncnc3cc(OC)c(OCCCN4CC5CNCC5C4)cc23)ccc1F (stereo not drawn) [Example 44, N-(3-ethynyl-4-fluorophenyl)-6-(3-(hexahydropyrrolo[3,4-c]pyrrol-2(1H)-yl)propoxy)-7-methoxyquinazolin-4-amine]"
12,0.101 to 1 nM,"C#Cc1cc(Nc2ncnc3cc(OC)c(OCCCN4CCn5cnnc5C4)cc23)ccc1F [Example 45, 6-(3-(5,6-dihydro-[1,2,4]triazolo[4,3-a]pyrazin-7(8H)-yl)propoxy)-N-(3-ethynyl-4-fluorophenyl)-7-m ethoxyquinazolin-4-amine]"
